Reference: the supplement of paper PMC11208160

Assay: recombinant UMI read abundance after kanamycin selection (control-corrected) (log10(CPM+1)); higher = more efficient recombination; extreme values may be limits of the assay; sequences stand for … in AGTGCAGAGAAAATCGGCCAGTTTTCTCTGCCTGCAGTCCGCATGCCGTGGGACCCCTTGGGTTCTAACCTGTTGCCTAGATTTATGCAGCGGACTGCCTTTCTCCCAAAGTGATAAACCGG…AGGTTGGTTTCACT; site = the 11-nt donor
How it was run: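 Pooled Escherichia coli screen of donor and donor-binding-loop pairs for the IS621 bridge recombinase. Each pair sits with a 12-nt UMI on a plasmid carrying a promoterless kanamycin gene. The library was co-electroporated with a target plasmid encoding a fixed target and T7-inducible recombinase, then plated with IPTG (0.07 mM) plus kanamycin, or unselected, each in two replicates. Recombinant UMIs were PCR-amplified across the donor–target junction and sequenced. Counts became CPM, averaged over replicates, scaled by control-derived factors and reported as log10(CPM+1).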
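Also: IS621 bridge recombinase in Escherichia coli cells against a fixed T5 target plasmid.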

Sequence | recombinant UMI read abundance (log10)
GGCCAGCCATGGACCGGTTTTCCCGGTAATCCGTATTTGTT (site GGCCACCCTAA) | 0.0285
GGCAGCGCATGGACCGGTTTTCCCGGTAATCCGTATTTGCT (site GGCAGCGCTAG) | 2.43
TTAGCCGCATGGACCGGTTTTCCCGGTAATCCGTATTTGTG (site TTAGCGGCTCA) | 0.0427
GGTACCTCATGGACCGGTTTTCCCGGTAATCCGTATTTGAG (site GGTACCTCTCT) | 0.374
GTTGATCCATGGACCGGTTTTCCCGGTAATCCGTATTTGGT (site GTTGCTCCTAC) | 0.0151
TAAGCTGCATGGACCGGTTTTCCCGGTAATCCGTATTTGTG (site TCAGCTGCTCA) | 0.00238
CGCTAGGCATGGACCGGTTTTCCCGGTAATCCGTATTTGGT (site TGCTAGGCTAC) | 0.0198
GATCGAGCATGGACCGGTTTTCCCGGTAATCCGTATTTGCA (site GTTCGAGCTTG) | 1.58
GCTACGGCATGGACCGGTTTTCCCGGTAATCCGTATTTGCC (site GCTACGGCTGG) | 0.761
TGTACACCATGGACCGGTTTTCCCGGTAATCCGTATTTGAC (site TTTACACCTGT) | 0
GCAACCTCATGGACCGGTTTTCCCGGTAATCCGTATTTGCT (site GCAACCTCTAG) | 1.91
CGGAAATCATGGACCGGTTTTCCCGGTAATCCGTATTTGCT (site CGGAGATCTAG) | 0.215
GTATGCACATGGACCGGTTTTCCCGGTAATCCGTATTTGTA (site GTATGTACTTA) | 0.274
CAATGGTCATGGACCGGTTTTCCCGGTAATCCGTATTTGAA (site CAATGCTCTTT) | 0.00506
TAATGAGCATGGACCGGTTTTCCCGGTAATCCGTATTTGGA (site TAATGAGCTGC) | 0
CACGGCCCATGGACCGGTTTTCCCGGTAATCCGTATTTGTC (site CACGGCCCTCA) | 0.166
TCAAAGACATGGACCGGTTTTCCCGGTAATCCGTATTTGCG (site TCACAGACTCG) | 0.546
AAGTCGCCATGGACCGGTTTTCCCGGTAATCCGTATTTGGT (site AAGTCGCCTAC) | 0.0178
CCAACTTCATGGACCGGTTTTCCCGGTAATCCGTATTTGGA (site CCAACTTCTTC) | 0
CCGCTTACATGGACCGGTTTTCCCGGTAATCCGTATTTGCT (site CCGTTTACTAG) | 0
CTTGTATCATGGACCGGTTTTCCCGGTAATCCGTATTTGGC (site CTAGTATCTGT) | 0.315
CGATTAGCATGGACCGGTTTTCCCGGTAATCCGTATTTGCT (site CGATTAGCTAG) | 0
GGTCTTACATGGACCGGTTTTCCCGGTAATCCGTATTTGAG (site GGTCTTACTCT) | 0.0687
TACCTTACATGGACCGGTTTTCCCGGTAATCCGTATTTGGA (site TACCTTACTTC) | 0.0267
TGCTAGGCATGGACCGGTTTTCCCGGTAATCCGTATTTGGT (site TGCTGGGCTAC) | 0.0136

Sequence | recombinant UMI read abundance (log10)
CTGCTACCATGGACCGGTTTTCCCGGTAATCCGTATTTGCC (site CTGCTACCTCG) | 0.00838
TCTGCCGCATGGACCGGTTTTCCCGGTAATCCGTATTTGAG (site TCTGCCGCTCT) | 0.0275
AGCTCTGCATGGACCGGTTTTCCCGGTAATCCGTATTTGGG (site AGCTCAGCTCC) | 0.0199
GGCTACCCATGGACCGGTTTTCCCGGTAATCCGTATTTGTT (site GGCGACCCTAA) | 0.015
CTTCCTACATGGACCGGTTTTCCCGGTAATCCGTATTTGAG (site CTTCCTACTCT) | 0.0166
TCATACTCATGGACCGGTTTTCCCGGTAATCCGTATTTGCA (site TCATACACTTG) | 0.64
AGAGAGACATGGACCGGTTTTCCCGGTAATCCGTATTTGCA (site AGAGAGACTTG) | 2.98
TCCAGTACATGGACCGGTTTTCCCGGTAATCCGTATTTGAG (site TCCAGTACTCT) | 0.00906
AGGAGGACATGGACCGGTTTTCCCGGTAATCCGTATTTGCA (site AGGAAGACTTG) | 2.35
ACACATCCATGGACCGGTTTTCCCGGTAATCCGTATTTGAC (site ATACATCCTGT) | 0
ATGTAGGCATGGACCGGTTTTCCCGGTAATCCGTATTTGGC (site ATGTGGGCTGC) | 0.618
GATTAACCATGGACCGGTTTTCCCGGTAATCCGTATTTGCT (site GATTATCCTAG) | 0.0295
CCTTGCACATGGACCGGTTTTCCCGGTAATCCGTATTTGAG (site CCTTGCACTCT) | 0.0135
AGCCTAGCATGGACCGGTTTTCCCGGTAATCCGTATTTGTC (site AGCCTAGCTTA) | 0.0185
TAGGAATCATGGACCGGTTTTCCCGGTAATCCGTATTTGCG (site TACGAATCTCG) | 1.28
ATGTAGGCATGGACCGGTTTTCCCGGTAATCCGTATTTGGC (site ATGTAGGCTGC) | 2.4
TCATACTCATGGACCGGTTTTCCCGGTAATCCGTATTTGCC (site TCATACTCTAG) | 1.07
GTACTAACATGGACCGGTTTTCCCGGTAATCCGTATTTGGA (site TTACTAACTTC) | 0.593
AAAAGGCCATGGACCGGTTTTCCCGGTAATCCGTATTTGAC (site AAAAGGCCTGT) | 1.38
GAGCTAACATGGACCGGTTTTCCCGGTAATCCGTATTTGAT (site GAGCTGACTAT) | 0.034
ACCGTATCATGGACCGGTTTTCCCGGTAATCCGTATTTGGA (site ACCGTATCTTC) | 1.83
CAATTCACATGGACCGGTTTTCCCGGTAATCCGTATTTGGG (site CAATTCACTCC) | 0.0754
AATGACTCATGGACCGGTTTTCCCGGTAATCCGTATTTGGT (site AATGACTCTAC) | 2.1
GTACTAACATGGACCGGTTTTCCCGGTAATCCGTATTTGGA (site ATACTAACTTC) | 0.569
TGAAGTCCATGGACCGGTTTTCCCGGTAATCCGTATTTGTA (site TTAAGTCCTTA) | 0.888

Sequence | recombinant UMI read abundance (log10)
AACAAGTCATGGACCGGTTTTCCCGGTAATCCGTATTTGAC (site AACAAGTCTGT) | 1.86
CAATTCCCATGGACCGGTTTTCCCGGTAATCCGTATTTGCA (site CAATTCCCTTG) | 1.27
GGGGCACCATGGACCGGTTTTCCCGGTAATCCGTATTTGCA (site GCGGCACCTTG) | 0
ACCTAGACATGGACCGGTTTTCCCGGTAATCCGTATTTGGA (site ACCTAGACTCC) | 0.0104
GTGGTCGCATGGACCGGTTTTCCCGGTAATCCGTATTTGGC (site GTGGTCGCTGC) | 2.91
CAATGCCCATGGACCGGTTTTCCCGGTAATCCGTATTTGAA (site CAATGCGCTTT) | 0.00922
GCTAGAGCATGGACCGGTTTTCCCGGTAATCCGTATTTGTA (site GCTAGAGCTTA) | 2.58
TCGTTCTCATGGACCGGTTTTCCCGGTAATCCGTATTTGGG (site TCGTTCTCTCC) | 0.00264
ATGCAGACATGGACCGGTTTTCCCGGTAATCCGTATTTGCA (site ATGCAGACTTG) | 2.15
AGCCTAGCATGGACCGGTTTTCCCGGTAATCCGTATTTGTA (site AGCCTAGCTTA) | 0.245
CCCTTCTCATGGACCGGTTTTCCCGGTAATCCGTATTTGGT (site CCCTTCTCTGC) | 0
TTAGTATCATGGACCGGTTTTCCCGGTAATCCGTATTTGAG (site CTAGTATCTGT) | 0
AAGTCGACATGGACCGGTTTTCCCGGTAATCCGTATTTGAA (site AAGTCGACTTT) | 0.435
ATCCAAACATGGACCGGTTTTCCCGGTAATCCGTATTTGAG (site ATCCAATCTCT) | 0.352
ACTAGAACATGGACCGGTTTTCCCGGTAATCCGTATTTGAG (site ACTAGAGCTCT) | 0.324
CTAGTATCATGGACCGGTTTTCCCGGTAATCCGTATTTGTG (site CTAGTATCTCA) | 2.97
CTCCTTACATGGACCGGTTTTCCCGGTAATCCGTATTTGAG (site CTCCATACTCT) | 0
TTCGAGGCATGGACCGGTTTTCCCGGTAATCCGTATTTGAT (site TTCGAGGCTAT) | 0.482
AGAGTATCATGGACCGGTTTTCCCGGTAATCCGTATTTGAA (site AGAGTATCTTT) | 3.15
AGGATGACATGGACCGGTTTTCCCGGTAATCCGTATTTGTA (site AGGAAGACTTG) | 0
TTTTCGGCATGGACCGGTTTTCCCGGTAATCCGTATTTGCT (site TTTACGGCTAG) | 0.0102
CTTGTATCATGGACCGGTTTTCCCGGTAATCCGTATTTGAC (site CTCGTATCTGT) | 0
AAAGATACATGGACCGGTTTTCCCGGTAATCCGTATTTGTT (site AAAGATACTAA) | 2.21
GGGAAGACATGGACCGGTTTTCCCGGTAATCCGTATTTGGA (site AGGAAGACTTG) | 0.00654
AGCTCAGCATGGACCGGTTTTCCCGGTAATCCGTATTTGGA (site AGCTCAGCTTC) | 1.03
